The source of these data is patent US8722730B2, “5-membered heterocyclic compound” (Research Foundation Itsuu Laboratory, priority 2007, dated 2014).

Like-named read-outs stand apart in the source and are kept apart here.

For data set [1] the following is noted: cited from earlier work.
For data set [2], the system named is human acute promyelocytic leukemia cell strain HL-60. Description: Differentiation induction of HL-60 cells, NBT-reducing ability. The data set is classed as cell-based. As to conditions: 96 h, cultured four days, NBT reduction, read-out: ED50 (the source's name). On the procedure:
Cells of human acute promyelocytic leukemia cell strain HL-60 were cultured in a CO2 incubator (5% CO2, 37° C.) using the RPMI medium containing 5% FBS. Differentiation inducing action of the compounds of the present invention on the HL-60 cells were evaluated on the basis of ability to reduce nitroblue tetrazolium (NBT) determined by observing differentiation from promyelocytic cells into granulocytic cells as an index. As positive control of retinoid compounds, retinoic acid and Am80 [4-[(5,6,7,8-tetrahydro-5,5,8,8-tetramethyl-2-naphthalenyl)carbamoyl]benzoic acid] were used. The cells that entered into the logarithmic phase and reached a substantially confluent state were centrifuged at 1000 rpm for 5 minutes, and the culture supernatant was removed. The cell pellet was suspended in fresh RPMI medium containing 5% FBS at a density of 8.0×10^4 cells/ml, then the suspension was added with a test compound dissolved in DMSO at an intended concentration, and the cells were cultured for four days and then used for the experiment. The samples were prepared so as to have the same DMSO concentration.
Cell count of the cells after the culture for a predetermined period was determined by a cell counting method using a blood cell counting chamber. The NBT-reducing ability was obtained as follows. NBT was dissolved in a phosphate buffered saline (PBS(−)) at a concentration of 0.2%, and the solution was added with an equivalent volume of the RPMI medium containing 5% FBS. The mixture was added with phorbol 12-myristate 13-acetate (tPA) at a concentration of 0.2 μM (about 200 ng) to prepare a reagent solution. The collected cells were centrifuged at 1000 rpm for 5 minutes, the supernatant was removed, and the remained cell pellet was added with the reagent solution. The mixture was incubated on a water bath at 37° C. for 20 minutes, and then NBT-reduced stained positive cells were counted by using the counting chamber to calculate a differentiation induction ratio.

Regarding `CC(C)(C)c1ccc(C(=O)Nc2ccc(C(=O)O)cc2)o1` [4-[(5-t-butylfuran-2-carbonyl)amino]benzoic acid], the differentiation induction ratio in data set [1] (at 3.7 μM) is 26%; in data set [1] (at 19 μM), 42%; in data set [1] (at 74 μM), 60%.
For the compound `CC(C)(C)c1ccc(C(=O)Nc2ccc(C(=O)O)cc2)s1` [4-[(5-t-butylthiophene-2-carbonyl)amino]benzoic acid], the differentiation induction entry in data set [1] (at 0.22 μM) is “no differentiation induction”. In addition, the figures for the differentiation induction ratio in data set [1] (at 1.1 μM) and in data set [1] (at 5.6 μM) were 22% and 23%, respectively.
For `CC1(C)CCC(C)(C)c2cc(NC(=O)c3ccc(C(=O)O)cc3)ccc21` [Am80, 4-[(5,6,7,8-tetrahydro-5,5,8,8-tetramethyl-2-naphthalenyl)carbamoyl]benzoic acid, reference compound], the EC50 in data set [2] amounted to 1.6 nM.
`CC(C)c1cc(C(=O)Nc2ccc(C(=O)O)cc2)oc1C(C)C` [Compound 1, 4-[(4,5-Diisopropylfuran-2-carbonyl)amino]benzoic acid] displayed a melting point of 120 to 121 °C. In addition, the EC50 in data set [2] amounted to 1.1 nM.
Compound `CC(C)c1cc(C(=O)Nc2ccc(OCC(=O)O)cc2)oc1C(C)C` [Compound 3, 4-[(4,5-Diisopropylfuran-2-carbonyl)amino]phenyloxyacetic acid] registered a melting point of 83 to 85 °C.
`CC(C)c1cc(C(=O)Nc2ccc(CC(=O)O)cc2)oc1C(C)C` [Compound 4, 4-[(4,5-Diisopropylfuran-2-carbonyl)amino]phenylacetic acid] came in with a melting point of 154 to 156 °C.
Regarding `CC(C)c1cc(C(=O)Nc2cccc(C(=O)O)c2)oc1C(C)C` [Compound 5, 3-[(4,5-Diisopropylfuran-2-carbonyl)amino]benzoic acid], the melting point is 243.5 to 245 °C.
For the compound `CC(C)c1cc(C(=O)Nc2ccc(CCC(=O)O)cc2)oc1C(C)C` [Compound 6, 3-[4-[(4,5-Diisopropylfuran-2-carbonyl)amino]phenyl]propionic acid], the melting point lay in the range of 139 to 141 °C. Besides, in data set [2], the EC50 is over 1000 nM.
For the compound `CC(C)c1cc(C(=O)Nc2ccc(C(=O)O)nc2)oc1C(C)C` [Compound 7, 5-[(4,5-Diisopropylfuran-2-carbonyl)amino]pyridine-2-carboxylic acid], the melting point was 106 to 107.5 °C. Moreover, the EC50 in data set [2] was 13.1 nM.
In the same order, the values of `CC(C)c1cc(C(=O)Nc2ccc(C(=O)O)cn2)oc1C(C)C` [Compound 8, 6-[(4,5-Diisopropylfuran-2-carbonyl)amino]pyridine-3-carboxylic acid] are 278 to 279 °C and 1.9 nM.
`CC(C)c1cc(C(=O)Nc2ccc(C(=O)O)s2)oc1C(C)C` [Compound 9, 5-[(4,5-Diisopropylfuran-2-carbonyl)amino]thiophene-2-carboxylic acid] returned a melting point of 227 to 228.5 °C. The EC50 in data set [2] came to 72.9 nM.
`CC(C)c1cc(/C=C/C(=O)Nc2ccc(C(=O)O)cc2)oc1C(C)C` [Compound 10, 4-[[3-(4,5-Diisopropyl-2-furanyl)acryloyl]amino]benzoic acid]: the melting point was in the range of 131 to 133 °C. Further, the EC50 in data set [2] was 166 nM.
In the same order, the values of `C/C(=C\C(=O)Nc1ccc(C(=O)O)cc1)c1cc(C(C)C)c(C(C)C)o1` [Compound 11, 4-[[3-(4,5-Diisopropyl-2-furanyl)crotonoyl]amino]benzoic acid] are 232.5 to 235 °C and 74.7 nM.
`CC(C)c1cc(C(=O)Nc2ccc(C(=O)O)cc2)[nH]c1C(C)C` [Compound 12, 4-[(4,5-Diisopropylpyrrole-2-carbonyl)amino]benzoic acid] returned a melting point of 230 to 230.5 °C. Also, the EC50 in data set [2] was 40.4 nM.
Take `CC(C)c1cc(C(C)C)c(C(=O)Nc2ccc(C(=O)O)cc2)[nH]1` [Compound 13, 4-[(3,5-Diisopropylpyrrole-2-carbonyl)amino]benzoic acid]: the melting point lay within 225 to 226 °C.
As for `CC(C)c1[nH]c(C(=O)Nc2ccc(C(=O)O)cc2)c(C(C)C)c1C(C)C` [Compound 14, 4-[(3,4,5-Triisopropylpyrrole-2-carbonyl)amino]benzoic acid], the melting point was over 300 °C. For the same compound, in data set [2], the EC50 was over 1000 nM.
`CC(C)c1cc(C(=O)Nc2ccc(C(=O)O)cc2)sc1C(C)C` [Compound 15, 4-[(4,5-Diisopropylthiophene-2-carbonyl)amino]benzoic acid] had a melting point of 219 to 221 °C. For the same compound, the EC50 in data set [2] is 1.8 nM.
`CC(C)c1cc(C(=O)Nc2ccc(C(=O)O)nc2)sc1C(C)C` [Compound 16, 5-[(4,5-Diisopropylthiophene-2-carbonyl)amino]pyridine-2-carboxylic acid] displayed a melting point of 216 to 217 °C.
For the compound `CC(C)c1cc(C(=O)Nc2ccc(C(=O)O)cn2)sc1C(C)C` [Compound 17, 6-[(4,5-Diisopropylthiophene-2-carbonyl)amino]pyridine-3-carboxylic acid], the melting point is over 300 °C.
As to `CC(C)c1cc(C(=O)Nc2ccc(C(=O)O)c(F)c2)oc1C(C)C` [Compound 22, 2-Fluoro-4-[(4,5-diisopropylfuran-2-carbonyl)amino]benzoic acid], the melting point lay in the range of 151 to 152 °C.
Take `CC(C)c1cc(C(=O)Nc2ccc(C(=O)O)c(Cl)c2)oc1C(C)C` [Compound 23, 2-Chloro-4-[(4,5-diisopropylfuran-2-carbonyl)amino]benzoic acid]: the melting point lay within 152 to 153 °C.
`CC(C)c1cc(C(=O)Nc2ccc(C(=O)O)c(O)c2)oc1C(C)C` [Compound 24, 2-Hydroxy-4-[(4,5-diisopropylfuran-2-carbonyl)amino]benzoic acid] came in with a melting point of 179 to 180 °C.
Consider `COc1cc(NC(=O)c2cc(C(C)C)c(C(C)C)o2)ccc1C(=O)O` [Compound 25, 2-Methoxy-4-[(4,5-diisopropylfuran-2-carbonyl)amino]benzoic acid], for which the melting point lay in the range of 136 to 137 °C.
The same measure, in the same setting: the figure for `CC(C)c1cc(/C=C/C(=O)N(C)c2ccc(C(=O)O)cc2)oc1C(C)C` [Compound 27, 4-[[3-(4,5-Diisopropyl-2-furanyl)acryloyl]methylamino]benzoic acid] is 213 to 214 °C; for `CC(C)c1cc(/C=C/C(=O)Nc2cccc(C(=O)O)c2)oc1C(C)C` [Compound 28, 3-[[3-(4,5-Diisopropyl-2-furanyl)acryloyl]amino]benzoic acid] it is 220.5 to 221.5 °C; for `CC(C)c1cc(/C=C/C(=O)N(C)c2cccc(C(=O)O)c2)oc1C(C)C` [Compound 29, 3-[[3-(4,5-Diisopropyl-2-furanyl)acryloyl]methylamino]benzoic acid] it is 187.5 to 189 °C.
With `CC(C)c1cc(C(=O)Nc2ccc(C(=O)O)o2)oc1C(C)C` [Compound 35, 5-[(4,5-Diisopropylfuran-2-carbonyl)amino]-2-furancarboxylic acid], the melting point is 169 to 171 °C.
Same read-out and setting: the figure for `CC(C)c1cc(C(=O)Nc2ccc3[nH]c(C(=O)O)cc3c2)oc1C(C)C` [Compound 36, 5-[(4,5-Diisopropylfuran-2-carbonyl)amino]-2-indolecarboxylic acid] is 240 to 243 °C.
Still for that read-out and setting: the value for `CC(C)c1cc(C(=O)Nc2ccc(C(=O)O)c(F)c2)sc1C(C)C` [Compound 39, 2-Fluoro-4-[(4,5-diisopropylthiophene-2-carbonyl)amino]benzoic acid] was 133 to 135 °C; that for `CC(C)c1cc(C(=O)Nc2ccc(C(=O)O)c(Cl)c2)sc1C(C)C` [Compound 40, 2-Chloro-4-[(4,5-diisopropylthiophene-2-carbonyl)amino]benzoic acid] was 222 to 223 °C; that for `CC(C)c1cc(C(=O)Nc2ccc(C(=O)O)c(O)c2)sc1C(C)C` [Compound 41, 2-Hydroxy-4-[(4,5-diisopropylthiophene-2-carbonyl)amino]benzoic acid] was 129 to 130 °C.
Compound `COc1cc(NC(=O)c2cc(C(C)C)c(C(C)C)s2)ccc1C(=O)O` [Compound 42, 2-Methoxy-4-[(4,5-diisopropylthiophene-2-carbonyl)amino]benzoic acid] gave a melting point of 213 to 214 °C.
As to `CC(C)c1cc(C(=O)Nc2cc(F)c(C(=O)O)c(F)c2)sc1C(C)C` [Compound 43, 2,6-Difluoro-4-[(4,5-diisopropylthiophene-2-carbonyl)amino]benzoic acid], the melting point was in the range of 218 to 219 °C.

What is called melting point is the temperature of the solid-liquid transition.
